Test results as given in PubChem BioAssay AID248 (DTP/NCI, 2004).
“And” between values parts separate entries of the source, which are not always exact repeats. Identical values can stand only once. Inconclusive results and toxic doses are left out. No stated cut-off is given here; in the data, active means T/C of 150% or more; inactive means T/C below 125%.

System: L1210 leukemia ip in BDF1 mice, survival T/C
Assay: NCI In Vivo Anticancer Drug Screen. Data for tumor model L1210 Leukemia (intraperitoneal) in B6D2F1 (BDF1) mice
Conditions: endpoint: mean survival time, higher = longer survival
Summary of the method: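 Ratio derived from survival: compound-dosed mice over vehicle-dosed mice, all bearing a transplantable tumor.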

[1] = dose: 100.0 mg/kg/injection, schedule: Q01DX009 (ip), vehicle: Klucel (hydroxypropylcellulose) (HPC)
[2] = dose: 100.0 mg/kg/injection, schedule: Q04DX003 (ip), vehicle: Klucel (hydroxypropylcellulose) (HPC)
[3] = dose: 200.0 mg/kg/injection, schedule: Q01DX009 (ip), vehicle: Klucel (hydroxypropylcellulose) (HPC)
[4] = dose: 200.0 mg/kg/injection, schedule: Q04DX003 (ip), vehicle: Klucel (hydroxypropylcellulose) (HPC)
[5] = dose: 10.0 mg/kg/injection, schedule: Q01DX001 (ip), vehicle: saline
[6] = dose: 100.0 mg/kg/injection, schedule: Q04DX003 (ip), vehicle: saline with Tween-80
[7] = dose: 200.0 mg/kg/injection, schedule: Q04DX003 (ip), vehicle: saline with Tween-80
[8] = dose: 400.0 mg/kg/injection, schedule: Q04DX003 (ip), vehicle: saline with Tween-80
[9] = dose: 50.0 mg/kg/injection, schedule: Q01DX001 (ip), vehicle: saline
[10] = dose: 100.0 mg/kg/injection, schedule: Q01DX001 (ip), vehicle: saline
[11] = dose: 200.0 mg/kg/injection, schedule: Q01DX001 (ip), vehicle: saline
[12] = dose: 400.0 mg/kg/injection, schedule: Q01DX001 (ip), vehicle: saline

Measured: T/C

O=[N+]([O-])c1cc(S(=O)(=O)F)ccc1O
inactive: dose: 5.0 mg/kg/injection, schedule: Q01DX001 (ip), vehicle: other 112 % of control | dose: 10.0 mg/kg/injection, schedule: Q01DX001 (ip), vehicle: other 97 % of control | dose: 20.0 mg/kg/injection, schedule: Q01DX001 (ip), vehicle: other 95 % of control | dose: 40.0 mg/kg/injection, schedule: Q01DX001 (ip), vehicle: other 101 % of control | dose: 80.0 mg/kg/injection, schedule: Q01DX001 (ip), vehicle: other 106 % of control

Cc1ccc(NS(=O)(=O)c2ccc(F)cc2)c(C)c1
inactive: [1] 94 % of control | [2] 100 % of control | [3] 94 % of control | [4] 97 % of control | dose: 400.0 mg/kg/injection, schedule: Q01DX009 (ip), vehicle: Klucel (hydroxypropylcellulose) (HPC) 101 % of control | dose: 400.0 mg/kg/injection, schedule: Q04DX003 (ip), vehicle: Klucel (hydroxypropylcellulose) (HPC) 101 % of control

C(=N/N=C(N/N=C/c1cccs1)N/N=C/c1cccs1)/c1cccs1
inactive: dose: 15.0 mg/kg/injection, schedule: Q01DX Z (ip), vehicle: carboxymethylcellulose (CMC) 97 % of control | dose: 30.0 mg/kg/injection, schedule: Q01DX Z (ip), vehicle: carboxymethylcellulose (CMC) 89 % of control | dose: 60.0 mg/kg/injection, schedule: Q01DX Z (ip), vehicle: carboxymethylcellulose (CMC) 97 % of control | dose: 120.0 mg/kg/injection, schedule: Q01DX Z (ip), vehicle: carboxymethylcellulose (CMC) 95 % of control and 97 % of control | dose: 240.0 mg/kg/injection, schedule: Q01DX Z (ip), vehicle: carboxymethylcellulose (CMC) 97 % of control | dose: 240.0 mg/kg/injection, schedule: Q01DX Z (oral), vehicle: carboxymethylcellulose (CMC) 107 % of control | dose: 480.0 mg/kg/injection, schedule: Q01DX Z (ip), vehicle: carboxymethylcellulose (CMC) 94 % of control | dose: 480.0 mg/kg/injection, schedule: Q01DX Z (oral), vehicle: carboxymethylcellulose (CMC) 107 % of control | dose: 960.0 mg/kg/injection, schedule: Q01DX Z (oral), vehicle: carboxymethylcellulose (CMC) 105 % of control | dose: 1920.0 mg/kg/injection, schedule: Q01DX Z (oral), vehicle: carboxymethylcellulose (CMC) 111 % of control

Cc1ccc[n+]2c1ccc1c3ccccc3ccc12
inactive: [5] 106 % of control

Oc1c(CNCCCN2CCCC2)cc(Cl)c2cccnc12
inactive: dose: 100.0 mg/kg/injection, schedule: Q04DX002 (ip), vehicle: saline 97 % of control | dose: 200.0 mg/kg/injection, schedule: Q04DX002 (ip), vehicle: saline 97 % of control

O=C(CN1C(=O)C(=O)O/C1=C/c1ccccc1)OCc1ccccc1
inactive: [1] 105 % of control | [3] 103 % of control

OB(O)CI
inactive: dose: 5.0 mg/kg/injection, schedule: Q01DX001 (ip), vehicle: saline 86 % of control | [5] 95 % of control | dose: 20.0 mg/kg/injection, schedule: Q01DX001 (ip), vehicle: saline 97 % of control

CCOC(=O)c1cc2sccc2[nH]1
inactive: [6] 100 % of control | [7] 100 % of control | [8] 93 % of control

Clc1c(Cl)c(/C=N/Nc2ccccc2)c(Cl)c(Cl)c1/C=N\Nc1ccccc1
inactive: [9] 101 % of control | [10] 95 % of control | dose: 100.0 mg/kg/injection, schedule: Q01DX009 (ip), vehicle: saline 98 % of control | [11] 92 % of control | dose: 200.0 mg/kg/injection, schedule: Q01DX009 (ip), vehicle: saline 96 % of control | [12] 95 % of control | dose: 400.0 mg/kg/injection, schedule: Q01DX009 (ip), vehicle: saline 96 % of control

CC1(C)CC2(CC3(C1)SCCS3)SCCS2
inactive: [10] 94 % of control | dose: 100.0 mg/kg/injection, schedule: Q04DX003 (ip), vehicle: acetone 89 % of control | [11] 97 % of control | dose: 200.0 mg/kg/injection, schedule: Q04DX003 (ip), vehicle: acetone 96 % of control | [12] 89 % of control | dose: 400.0 mg/kg/injection, schedule: Q04DX003 (ip), vehicle: acetone 91 % of control

CN(C)c1ccc(/C=C/C(=O)c2ccc([N+](=O)[O-])cc2)cc1
inactive: dose: 3.0 mg/kg/injection, schedule: Q01DX009 (ip), vehicle: gum acacia 100 % of control | dose: 6.0 mg/kg/injection, schedule: Q01DX009 (ip), vehicle: gum acacia 96 % of control | dose: 12.0 mg/kg/injection, schedule: Q01DX009 (ip), vehicle: gum acacia 94 % of control | dose: 12.5 mg/kg/injection, schedule: Q01DX009 (ip), vehicle: gum acacia 91 % of control | dose: 100.0 mg/kg/injection, schedule: Q01DX009 (ip), vehicle: gum acacia 87 % of control | dose: 100.0 mg/kg/injection, schedule: Q04DX003 (ip), vehicle: gum acacia 89 % of control | dose: 200.0 mg/kg/injection, schedule: Q04DX003 (ip), vehicle: gum acacia 86 % of control | dose: 400.0 mg/kg/injection, schedule: Q01DX009 (ip), vehicle: gum acacia 96 % of control | dose: 400.0 mg/kg/injection, schedule: Q04DX003 (ip), vehicle: gum acacia 89 % of control

Nc1ccc2[nH]ncc2c1
inactive: [6] 102 % of control | [7] 102 % of control | [8] 110 % of control

NNC(=S)NC1CCCCC1
inactive: dose: 25.0 mg/kg/injection, schedule: Q04DX003 (ip), vehicle: Klucel (hydroxypropylcellulose) (HPC) 100 % of control | dose: 50.0 mg/kg/injection, schedule: Q04DX003 (ip), vehicle: Klucel (hydroxypropylcellulose) (HPC) 95 % of control | [2] 95 % of control and 90 % of control | [6] 96 % of control | [7] 96 % of control | [8] 96 % of control

CC1C(=O)OC2C1CCC1(C)C3(C)C(=O)C=CC213 (stereo unspecified)
inactive: dose: 75.0 mg/kg/injection, schedule: Q01DX001 (ip), vehicle: saline 97 % of control | dose: 150.0 mg/kg/injection, schedule: Q01DX001 (ip), vehicle: saline 106 % of control | dose: 300.0 mg/kg/injection, schedule: Q01DX001 (ip), vehicle: saline 95 % of control

NC(CSS(=O)(=O)O)=NCCCc1nc2ccccc2[nH]1
inactive: dose: 100.0 mg/kg/injection, schedule: Q04DX002 (ip), vehicle: Klucel (hydroxypropylcellulose) (HPC) 106 % of control | dose: 200.0 mg/kg/injection, schedule: Q04DX002 (ip), vehicle: Klucel (hydroxypropylcellulose) (HPC) 92 % of control | dose: 400.0 mg/kg/injection, schedule: Q04DX002 (ip), vehicle: Klucel (hydroxypropylcellulose) (HPC) 95 % of control

CCOC(=O)C(C(=O)CC(C)C)C(C)C (stereo unspecified)
inactive: [9] 103 % of control | [10] 103 % of control | [11] 109 % of control | [12] 101 % of control

CSc1nc(N)c(N=Nc2ccc(S(=O)(=O)Nc3nnc(C)s3)cc2)c(=O)[nH]1
inactive: dose: 100.0 mg/kg/injection, schedule: Q01DX001 (ip), vehicle: carboxymethylcellulose (CMC) 95 % of control | dose: 200.0 mg/kg/injection, schedule: Q01DX001 (ip), vehicle: carboxymethylcellulose (CMC) 97 % of control | dose: 400.0 mg/kg/injection, schedule: Q01DX001 (ip), vehicle: carboxymethylcellulose (CMC) 101 % of control

Cc1[nH]c(=O)nc(Br)c1[N+](=O)[O-]
inactive: dose: 50.0 mg/kg/injection, schedule: Q01DX009 (ip), vehicle: Klucel (hydroxypropylcellulose) (HPC) 101 % of control | [1] 107 % of control | [2] 97 % of control | [3] 98 % of control | [4] 95 % of control
